Source: article PMC2409616 (British Journal of Cancer, 2004)
Several values for one entry are separate records, joined by “and”; a condition that tells them apart may be missing. Equal entries are not always repeated. Where two headings read alike, the source gives them in different places.

Tests used:
UV4 [1] = experiment: cells; settings: Cricetulus griseus, UV4, 4 h, read-out: IC50 following 4 h drug exposure
SiHa cells = experiment: Metabolic consumption of prodrug in stirred single-cell suspensions (loss from extracellular medium); settings: corrected to 10^6 cells ml^−1, mean±s.e.m., 2–3 cell suspensions
SiHa-NTR^puro cells = experiment: Metabolic consumption of prodrug in stirred single-cell suspensions (loss from extracellular medium); settings: corrected to 10^6 cells ml^−1, mean±s.e.m., 2–3 cell suspensions
SiHa = experiment: cells; settings: Homo sapiens, 4 h, read-out: IC50 following 4 h drug exposure
WiDr = experiment: cells; settings: Homo sapiens, 4 h, read-out: IC50 following 4 h drug exposure
V79^puro = experiment: cells; settings: Cricetulus griseus, 4 h, read-out: IC50 following 4 h drug exposure
AA8 = experiment: cells; settings: Cricetulus griseus, CHO-AA8, 4 h, read-out: IC50 following 4 h drug exposure
UV4 [2] = test system: UV4
SiHa MCLs = experiment: Transport through multicellular layers (two-chamber diffusion apparatus); settings: 100 μM in donor compartment

| SMILES | IC50 (UV4 [1]) | First-order rate constant k of metabolic consumption (SiHa cells) | Bioactivity of HPLC fraction against UV4 cells (UV4 cells; extracellular medium of V79-NTR^puro suspensions (5 × 10^6 ml^−1, 3 h) with CB 1954) | First-order rate constant k of metabolic consumption (SiHa-NTR^puro cells) | First-order rate constant k of metabolic consumption (V79^puro cells (NTR−ve); Chinese hamster) | IC50 (SiHa) | First-order rate constant k of metabolic consumption (V79-NTR^puro cells; Chinese hamster) | IC50 (WiDr) | IC50 (V79^puro) | IC50 (AA8) | Bioactivity of HPLC fraction against UV4 cells (UV4 cells) | Appearance of metabolite in donor and receiver compartments (SiHa-NTR^puro MCLs) | AA8/UV4 intra-experiment IC50 ratio (UV4 [2]) | Initial flux of metabolite (SiHa-NTR^puro MCLs; human) | Appearance in the receiver compartment in the presence of an MCL vs bare support membrane (SiHa MCLs) | Fold less potent in the four repair competent cell lines than in UV4 (UV4 [2]) | First-order rate constant k of metabolic consumption (V79^puro cells (NTR−ve); V79^puro, corrected to 10^6 cells ml^−1, mean±s.e.m., 2–3 cell suspensions) | First-order rate constant k of metabolic consumption (V79-NTR^puro cells; V79-NTR^puro, corrected to 10^6 cells ml^−1, mean±s.e.m., 2–3 cell suspensions) |
| --- | --- | --- | --- | --- | --- | --- | --- | --- | --- | --- | --- | --- | --- | --- | --- | --- | --- | --- |
| NC(=O)c1cc(N2CC2)c([N+](=O)[O-])cc1[N+](=O)[O-] [compound 1, 5-(aziridin-1-yl)-2,4-dinitrobenzamide, reference compound] | 135 ± 28 µM | 0.0066 ± 0.0001 h⁻¹ | weak cytotoxicity | 0.22 ± 0.06 h⁻¹ | 0.0010 ± 0.0004 h⁻¹ | 277 ± 36 µM | 0.08 ± 0.03 h⁻¹ | 485 ± 34 µM | 2950 ± 113 µM | 2480 ± 260 µM | – | – | – | – | – | – | – | – |
| NC(=O)c1cc(N2CC2)c([N+](=O)[O-])cc1NO [compound 2] | 6.3 µM | – | – | – | – | – | – | – | – | 22 µM | significant cytotoxicity | not detected in either compartment | 3.4 | – | – | – | – | – |
| NC(=O)c1cc(N2CC2)c([N+](=O)[O-])cc1N [compound 3] | 3.7 ± 0.7 µM | – | – | – | – | 7.9 ± 3.3 µM | – | 21 ± 3 µM | 56 ± 7 µM | 28 ± 8 µM | significant cytotoxicity | accumulated in both compartments | – | ~0.2 µM/h | – | – | – | – |
| NC(=O)c1cc(N2CC2)c(NO)cc1[N+](=O)[O-] [compound 4, 5-(aziridin-1-yl)-4-hydroxylamino-2-nitrobenzamide] | 0.62 ± 0.05 µM | – | – | – | – | 45 ± 9 µM | – | 26 ± 5 µM | 6.9 ± 0.6 µM | 39 ± 6 µM | greatest activity | not detected at all in the receiver compartment | 63 and 63±5 | – | greatly reduced | 11–70 fold | – | – |
| NC(=O)c1cc(N2CC2)c(N)cc1[N+](=O)[O-] [compound 5] | 47 ± 5 µM | – | – | – | – | 163 ± 39 µM | – | 141 ± 34 µM | 238 ± 6 µM | 62 ± 12 µM | significant cytotoxicity | accumulated in both compartments | 1.2±0.1 | – | – | – | – | – |
| NC(=O)c1cc(N(CCCl)CCCl)c([N+](=O)[O-])cc1[N+](=O)[O-] [compound 7, 5-[N,N-bis(2-chloroethyl)amino]-2,4-dinitrobenzamide] | 761 ± 89 µM | <0.001 h⁻¹ | – | 0.6 ± 0.2 h⁻¹ | – | > 800 µM | – | > 1000 µM | > 500 µM | ~1000 µM | – | – | ca 1.3 | – | – | – | 0.0020 ± 0.0001 h⁻¹ | 0.17 ± 0.003 h⁻¹ |
| NC(=O)c1cc(N(CCCl)CCCl)c([N+](=O)[O-])cc1NO [compound 8] | 0.045 ± 0.001 µM | – | – | – | – | 2.07 ± 0.08 µM | – | 1.2 ± 0.1 µM | 1.74 ± 0.23 µM | 2.3 ± 0.1 µM | – | – | 51±1 | – | – | – | – | – |
